According to patent US20060041013A1, “Alanosine formulations and methods of use” (priority 2004, published 2006):
Where two headings read alike, the source gives them in different places.

How the values were obtained:
[1] = tested on: BX-PC3; test: Drug combinations with L-alanosine, MTT assay; assay type: cell-based; details: combination with L-alanosine, three days
Procedure: (§1) In each experiment, tumor cells from lung, pancreatic, or mesothelial tumor cell lines were plated in 96-well plates at 5,000 cells/well in 100 μL media. The media for all assays except the Alimta® studies was RPMI-1640 and 10% horse serum. For the Alimta® studies, the media used was RPMI 1640 with dialyzed fetal bovine serum. All media contained 100 Units/mL penicillin and 100 μg/mL streptomycin. The cells were allowed to adhere for 18 hours at 37° C./5.0% CO2. […] After drug addition, cells were incubated three days at 37° C., 5.0% CO2. Cell viability was assayed using a standard MTT assay, as follows: 10 μl of 12 mM 3-[4,5-dimethylthiazol-2-yl]-2,5-diphenyltetrazolium bromide (MTT) (Sigma) were added to each well. The cells were incubated at 37° C., 5% CO2 for 4 to 6 hours. 100 μl of 20% SDS, 0.015 M HCl were added to each well and the cells were incubated overnight. Cytotoxicity was measured by reading absorbance at 595 nm.
(§2) Data analysis was performed using GraphPad Prism version 3.0 (GraphPad Software, San Diego, Calif. USA).

[2] = tested on: NCI-H2452; test: Drug combinations with L-alanosine, MTT assay; assay type: cell-based; details: combination with L-alanosine, mesothelioma, three days
Procedure: as §1, §2

[3] = tested on: PanC1; test: Drug combinations with L-alanosine, MTT assay; assay type: cell-based; details: combination with L-alanosine, pancreatic, three days
Procedure: as §1, §2

[4] = tested on: A549; test: Docetaxel, 5-FU, SDX-102 alone or combined, MTT/MTS cytotoxicity (Example 4); assay type: cell-based; details: Homo sapiens; A549, NSCLC, single agent, MTT 72 hours
[5] = tested on: NCI-H292; test: as above; assay type: cell-based; details: Homo sapiens; NCI-H292, NSCLC, single agent, MTT 72 hours
[6] = tested on: NCI-H322M; test: as above; assay type: cell-based; details: Homo sapiens, NSCLC, single agent, MTT 72 hours
[7] = tested on: PANC-1; test: as above; assay type: cell-based; details: Homo sapiens; PANC-1, Pancreatic, single agent, MTT 72 hours
[8] = tested on: BX-PC3; test: as above; assay type: cell-based; details: Homo sapiens, BXPC-3; BX-PC3, Pancreatic, single agent, MTT 72 hours
[9] = tested on: NCI-H2452; test: as above; assay type: cell-based; details: Homo sapiens; NCI-H2452, Mesothelioma, single agent, MTT 72 hours
[10] = tested on: A549; test: Drug combinations with L-alanosine, MTT assay; assay type: cell-based; details: combination with L-alanosine, NSCLC, three days
Procedure: as §1, §2

[11] = tested on: NCI-H2322M; test: Drug combinations with L-alanosine, MTT assay; assay type: cell-based; details: combination with L-alanosine, ratio drug:alanosine 1:1000; NSCLC; three days
Procedure: as §1, §2

[12] = tested on: NCI-H292; test: Drug combinations with L-alanosine, MTT assay; assay type: cell-based; details: combination with L-alanosine, ratio drug:alanosine 1:1000; NSCLC; three days
Procedure: as §1, §2

[13] = tested on: H-Meso-1; test: Mesothelioma xenograft model (H-Meso-1) in SCID mice; assay type: in vivo; details: thirty-one days following treatment; docetaxel 10 mg/kg intraperitoneally daily Mon-Fri, SDX-102 50 mg/kg osmotic pump; start 100 mm^3; control 1272
[14] = tested on: A549 NSCLC xenografts; test: MTAP-negative A549 NSCLC xenografts in SCID mice; assay type: in vivo
[15] = tested on: A-427; test: Intracellular ATP levels (Cell-Titer Glow); assay type: cell-based
Procedure: (§3) MTAP status was determined using immunoblot analyses and correlated with the ability of an MTA analog to rescue ATP levels in cell lines treated with SDX-102. ATP levels were measured using Cell-Titer Glow™ (Promega) after a 3 day treatment with titrated concentrations of either SDX-102 or pemetrexed.
(§4) ATP values measured using Cell-Titer Glow™ (Promega) after 3 days exposure to the MTA analog. Solid lines in FIG. 8 represent the effect of titrations of SDX-102 from 0.05 μM-20 μM (FIG. 8A) or pemetrexed from 0.01 μM-5 μM (FIG. 8B) on cellular ATP levels. The dotted lines represent the effect of a single concentration of SDX-102 (10 μM) or pemetrexed (2.5 μM) with a titration of an MTA analog from 0.1 μM-50 μM.

[16] = tested on: HS-766T; test: Intracellular ATP levels (Cell-Titer Glow); assay type: cell-based
Procedure: as §3, §4

[17] = tested on: NCI-H226; test: Intracellular ATP levels (Cell-Titer Glow); assay type: cell-based
Procedure: as §3, §4

[18] = tested on: A-594; test: Intracellular ATP levels (Cell-Titer Glow); assay type: cell-based; details: 72 h; A-594, NSCLC, MTAP Negative; 3 day treatment
Procedure: as §3

[19] = tested on: BxPC3; test: Intracellular ATP levels (Cell-Titer Glow); assay type: cell-based; details: Homo sapiens, BXPC-3, 72 h; BxPC3, Pancreatic, MTAP Negative; 3 day treatment
Procedure: as §3

[20] = tested on: NCI-H2452; test: Intracellular ATP levels (Cell-Titer Glow); assay type: cell-based; details: Homo sapiens
Procedure: as §3

[21] = tested on: BxPC3; test: Cell viability MTT assay (Example 3); assay type: cell-based; details: Homo sapiens, BXPC-3, 72 h; BxPC3, Pancreatic, MTAP Negative; 3 days
[22] = tested on: HS-766T; test: Cell viability MTT assay (Example 3); assay type: cell-based
[23] = Cell viability MTT assay (Example 3); assay type: cell-based; details: 72 h; A-594, NSCLC, MTAP Negative; 3 days
[24] = tested on: A-427; test: Cell viability MTT assay (Example 3); assay type: cell-based; details: Homo sapiens, 72 h; A-427, NSCLC, MTAP Positive; 3 days
[25] = tested on: NCI-H2452; test: Cell viability MTT assay (Example 3); assay type: cell-based; details: Homo sapiens, 72 h; NCI-H2452, Mesothelioma, MTAP Negative; 3 days
[26] = tested on: NCI-H226; test: Cell viability MTT assay (Example 3); assay type: cell-based; details: Homo sapiens, 72 h; NCI-H226, Mesothelioma, MTAP Positive; 3 days
[27] = tested on: NCI-H2452
[28] = ratio drug:alanosine 5:1, pancreatic
[29] = ratio drug:alanosine 1:4, pancreas
[30] = ratio drug:alanosine 1:100, pancreas

With O=c1[nH]cc(F)c(=O)[nH]1 [5-FU, 5-fluorouracil] the “EC75 CI value” [1, 28] was 0.8, the “EC75 Effect” value [1, 28] was “moderate” and the “EC90 Effect” value [1, 28] was “moderate”. For the same compound, the “EC75 CI value” ([2]; ratio drug:alanosine 1:1) was 0.5, the “EC75 Effect” value ([2]; ratio drug:alanosine 1:1) was “synergism” and the “EC90 Effect” value ([2]; ratio drug:alanosine 1:1) was “synergism”. The “EC75 CI value” ([3]; ratio drug:alanosine 1:1) was 0.6, the “EC75 Effect” value ([3]; ratio drug:alanosine 1:1) was “synergism” and the “EC90 Effect” value ([3]; ratio drug:alanosine 1:1) was “synergism”. It also gave an IC50 [4] of 1 ± 0.6 µM, an IC50 [5] of 3 ± 2 µM and an IC50 [6] of 6 ± 5 µM. It also gave an IC50 [7] of 14 ± 4 µM, an IC50 [8] of 3 ± 2 µM and an IC50 [9] of 5 ± 2 µM.
For COc1cc2ncnc(Nc3ccc(F)c(Cl)c3)c2cc1OCCCN1CCOCC1 [Iressa ®, gefitinib], the “EC75 CI value” [1, 29] was 0.29, the “EC75 Effect” value [1, 29] was “strong” and the “EC90 Effect” value [1, 29] was “strong”.
In the case of CC(=O)O[C@@]12CO[C@@H]1C[C@H](O)[C@@]1(C)C(=O)[C@H](O)C3=C(C)[C@@H](OC(=O)[C@H](O)[C@@H](NC(=O)OC(C)(C)C)c4ccccc4)C[C@@](O)([C@@H](OC(=O)c4ccccc4)[C@H]21)C3(C)C [docetaxel], the “EC75 CI value” ([10]; ratio drug:alanosine 1:100) is reported as 0.8, the “EC75 Effect” value ([10]; ratio drug:alanosine 1:100) is reported as “moderate” and the “EC90 Effect” value ([10]; ratio drug:alanosine 1:100) is reported as “moderate”. For the same compound, the “EC75 CI value” [11] was 0.9, the “EC90 Effect” value [11] was “synergism” and the “EC75 CI value” ([2]; ratio drug:alanosine 1:1000) was 0.8. The “EC75 Effect” value ([2]; ratio drug:alanosine 1:1000) was “moderate”, the “EC90 Effect” value ([2]; ratio drug:alanosine 1:1000) was “synergism” and the “EC75 CI value” [12] was 1.1. For the same compound, the “EC75 Effect” value [12] was “additive”, the “EC90 Effect” value [12] was “additive” and the “EC75 CI value” ([3]; ratio drug:alanosine 1:1000) was 0.6. The “EC75 Effect” value ([3]; ratio drug:alanosine 1:1000) was “synergism”, the “EC90 Effect” value ([3]; ratio drug:alanosine 1:1000) was “synergism” and the IC50 [4] was 5 ± 4 µM. It also gave an IC50 [5] of 0.2 ± 0.05 µM, an IC50 [6] of 6 ± 2 µM and an IC50 [7] of 30 ± 6 µM. It also gave an IC50 [8] of 1.2 ± 0.8 µM, an IC50 [9] of 3 ± 2 µM and a mean tumor volume [13] of 655 mm^3.
With Nc1ccn([C@@H]2O[C@H](CO)[C@@H](O)C2(F)F)c(=O)n1 [gemcitabine] the “EC75 CI value” ([2]; ratio drug:alanosine 1:100) was 0.6, the “EC75 Effect” value ([2]; ratio drug:alanosine 1:100) was “synergism” and the “EC90 Effect” value ([2]; ratio drug:alanosine 1:100) was “synergism”.
For CC(=O)O[C@H]1C(=O)[C@@]2(C)[C@H]([C@H](OC(=O)c3ccccc3)[C@]3(O)C[C@H](OC(=O)[C@H](O)[C@@H](NC(=O)c4ccccc4)c4ccccc4)C(C)=C1C3(C)C)[C@]1(OC(C)=O)CO[C@@H]1C[C@@H]2O [paclitaxel], the tumor growth inhibition ([14]; 60 days monitoring, doses as administered) was “inhibited tumor growth”, the “time for the tumors to increase 10-fold in size” value ([14]; L-alanosine 40 then 20 mg/kg/day, Taxol 16 mg/kg/day i.p., two cycles (day 0, day 41), control 32.2) was 43.2 days and the “percent mean change in tumor volume” value ([14]; day 46) was 1449±236%.
With Nc1nc2[nH]cc(CCc3ccc(C(=O)N[C@@H](CCC(=O)O)C(=O)O)cc3)c2c(=O)[nH]1 [pemetrexed] the “EC75 CI value” ([10]; ratio drug:alanosine 1:10) was 0.9, the “EC75 Effect” value ([10]; ratio drug:alanosine 1:10) was “slight” and the “EC90 Effect” value ([10]; ratio drug:alanosine 1:10) was “Slight”. For the same compound, the “EC75 CI value” ([2]; ratio drug:alanosine 1:1) was 0.3, the “EC75 Effect” value ([2]; ratio drug:alanosine 1:1) was “strong” and the “EC90 Effect” value ([2]; ratio drug:alanosine 1:1) was “strong”. The “ATP levels restored by addition of an MTAP substrate, of level in control cells” value (from here on “ATP levels restored by addition”) ([15]; A-427 (MTAP-positive) treated with pemetrexed) was “more than 85%”, the IC50 ([15]; Homo sapiens, 72 h, A-427, NSCLC, MTAP Positive, 3 day treatment) was 5 µM and the “ATP levels restored by addition” value ([16]; HS-766T (MTAP-positive) treated with pemetrexed) was “more than 85%”. For the same compound, the IC50 ([16]; Hs766T, 72 h, HS-766T, Pancreatic, MTAP Positive, 3 day treatment) was 0.8 µM, the IC50 ([17]; Homo sapiens, 72 h, NCI-H226, Mesothelioma, MTAP Positive, 3 day treatment) was 1 µM and the “ATP levels restored by addition” value ([17]; NCI-H226 (MTAP-positive) treated with pemetrexed) was “more than 85%”. The IC50 [18] was > 20 µM, the IC50 [19] was 5 µM and the IC50 ([20]; 72 h, NCI-H2452, Mesothelioma, MTAP Negative, 3 day treatment, read-out: ATP IC50) was 0.1 µM. The IC50 ([20]; NCI-H2452, 72 hours incubation, read-out: concentration causing 50% reduction of intracellular ATP) was 0.08 µM, the IC50 [21] was 0.05 µM and the IC50 ([22]; Hs766T, 72 h, Pancreatic, MTAP Positive, 3 days) was > 20 µM. The “rescue by MTAP substrate from loss of viability” value ([22]; MTT assay) was “fully rescue”, the IC50 [23] was 0.5 µM and the IC50 [24] was 3 µM. It also gave an IC50 [25] of 0.05 µM, an IC50 [26] of 1 µM and an IC75 ([27]; NCI-H2452, incubation with 200 nM L-alanosine) of 0.015 µM. The IC75 ([27]; NCI-H2452, pemetrexed alone) was 0.2 µM.
With CCC1=C[C@@H]2CN(C1)Cc1c([nH]c3ccccc13)[C@@](C(=O)OC)(c1cc3c(cc1OC)N(C)[C@H]1[C@@](O)(C(=O)OC)[C@H](OC(C)=O)[C@]4(CC)C=CCN5CC[C@]31[C@@H]54)C2 [vinorelbine] the “EC75 CI value” [1, 30] was 0.6, the “EC75 Effect” value [1, 30] was “synergism” and the “EC90 Effect” value [1, 30] was “synergism”.
